Reference: ChEMBL document CHEMBL5137099, “Discovery of Novel cccDNA Reducers toward the Cure of Hepatitis B Virus Infection” (J Med Chem, 2022)
Activity calls are given as the source filed them. The calls are words filed in the database; no cut-off is given here.

Legend:
[1] = fCmin in HBVcircle mouse model at 100 mg/kg BID; assay type: ADME, organism-based; details: in vivo
[2] = Permeability of the compound by PAMPA analysis; assay type: ADME; details: read-out: permeability
[3] = Cmax in C3H/J mouse plasma at 100 mg/kg, po by LC-MS/MS analysis; assay type: ADME, organism-based; design: dose 100 mg/kg, route po
[4] = fCmax in HBVcircle mouse model at 100 mg/kg BID; assay type: ADME, organism-based; details: in vivo
Hepatitis B virus [5] = test: Antiviral activity against HBV infected in human HepDES19 cells assessed as reduction in HBV cccDNA production by measuring inhibition of HBeAg secretion incubated for 5 days by ELISA; assay type: functional, organism-based; details: HepDES19, 120 h
[6] = Dose normalized Cmax in C3H/J mouse at 300 mg/kg, po by LC-MS/MS analysis; assay type: ADME, organism-based; details: in vivo
[7] = AUC (0 to infinity) in C3H/J mouse at 5 mg/kg, po by LC-MS/MS analysis; assay type: ADME, organism-based; design: time infinity, dose 5 mg/kg, route po; details: in vivo
[8] = fCmax in HBVcircle mouse model at 300 mg/kg BID; assay type: ADME, organism-based; details: in vivo
[9] = fCaverage in HBVcircle mouse model at 100 mg/kg QD; assay type: ADME, organism-based; details: in vivo
[10] = Octanol-aqueous buffer distribution coefficient, log D of the compound at pH 7.4 by CAMDIS assay; assay type: physicochemical
[11] = Half life in C3H/J mouse at 5 mg/kg, po by LC-MS/MS analysis; assay type: ADME, organism-based; details: in vivo
[12] = Dose normalized Cmax in C3H/J mouse at 100 mg/kg, po by LC-MS/MS analysis; assay type: ADME, organism-based; details: in vivo
[13] = Tmax in C3H/J mouse at 100 mg/kg, po by LC-MS/MS analysis; assay type: ADME, organism-based; details: in vivo
[14] = Dose normalized AUC (0 to 24 hrs) in C3H/J mouse at 100 mg/kg, po by LC-MS/MS analysis; assay type: ADME, organism-based; details: in vivo
[15] = AUC (0 to 12 hrs) in C3H/J mouse at 300 mg/kg, po by LC-MS/MS analysis; assay type: ADME, organism-based; design: time < 12 hr, dose 300 mg/kg, route po; details: in vivo
[16] = Half life in C3H/J mouse at 100 mg/kg, po by LC-MS/MS analysis; assay type: ADME, organism-based; details: in vivo
[17] = Cmax in C3H/J mouse plasma at 5 mg/kg, po by LC-MS/MS analysis; assay type: ADME, organism-based; design: dose 5 mg/kg, route po
Hepatitis B virus [18] = test: Antiviral activity against HBV infected in human primary hepatocyte cells assessed as reduction in HBV cccDNA production by measuring inhibition of HBsAg secretion measured after 48 hrs by ELISA; assay type: functional, organism-based
[19] = fCmin in HBVcircle mouse model at 300 mg/kg BID; assay type: ADME, organism-based; details: in vivo
[20] = Dose normalized AUC (0 to 24 hrs) in C3H/J mouse at 20 mg/kg, po by LC-MS/MS analysis; assay type: ADME, organism-based; details: in vivo
[21] = Metabolic stability in mouse hepatocytes assessed as intrinsic clearance; assay type: ADME, cell-based, Hepatocyte; details: read-out: CLH
[22] = Tmax in C3H/J mouse at 300 mg/kg, po by LC-MS/MS analysis; assay type: ADME, organism-based; details: in vivo
[23] = fCmax in HBVcircle mouse model at 100 mg/kg QD; assay type: ADME, organism-based; details: in vivo
[24] = Cmax in C3H/J mouse plasma at 300 mg/kg, po by LC-MS/MS analysis; assay type: ADME, organism-based; design: dose 300 mg/kg, route po
[25] = Half life in C3H/J mouse at 20 mg/kg, po by LC-MS/MS analysis; assay type: ADME, organism-based; details: in vivo
[26] = fCaverage in HBVcircle mouse model at 300 mg/kg BID; assay type: ADME, organism-based; details: in vivo
[27] = fCmin in HBVcircle mouse model at 100 mg/kg QD; assay type: ADME, organism-based; details: in vivo
[28] = Dose normalized Cmax in C3H/J mouse at 5 mg/kg, po by LC-MS/MS analysis; assay type: ADME, organism-based; details: in vivo
[29] = Toxicity in C3H/J mouse assessed as tolerability at 100 to 300 mg/kg BID for 5 days; assay type: organism-based; details: in vivo, 120 h, dose 100-300 mg/kg, time 5 day
[30] = Dose normalized AUC (0 to 12 hrs) in C3H/J mouse at 300 mg/kg, po by LC-MS/MS analysis; assay type: ADME, organism-based; details: in vivo
[31] = Tmax in C3H/J mouse at 5 mg/kg, po by LC-MS/MS analysis; assay type: ADME, organism-based; details: in vivo
[32] = Aqueous solubility of the compound; assay type: physicochemical; details: buffer
Hepatitis B virus [33] = test: Antiviral activity against HBV infected HBVcircle mouse model assessed as reduction in cccDNA levels in mouse liver at 300 mg/kg, po bid treated for 3 weeks and measured up to 56 days by qPCR analysis; assay type: functional, organism-based
[34] = AUC (0 to infinity) in C3H/J mouse at 20 mg/kg, po by LC-MS/MS analysis; assay type: ADME, organism-based; design: time infinity, dose 20 mg/kg, route po; details: in vivo
[35] = Dose normalized AUC (0 to 24 hrs) in C57BL/6 mouse at 5 mg/kg, po by LC-MS/MS analysis; assay type: ADME, organism-based; details: in vivo
[36] = fCaverage in HBVcircle mouse model at 100 mg/kg BID; assay type: ADME, organism-based; details: in vivo
[37] = Cmax in C3H/J mouse plasma at 20 mg/kg, po by LC-MS/MS analysis; assay type: ADME, organism-based; design: dose 20 mg/kg, route po
Hepatitis B virus [38] = test: Antiviral activity against HBV infected in human HepDES19 cells assessed as reduction in HBV cccDNA production by measuring inhibition of HBeAg secretion at 0.3 to 30 uM by southern blot analysis; assay type: functional, organism-based; details: dose 0.3-30 µM
[39] = Dose normalized Cmax in C3H/J mouse at 20 mg/kg, po by LC-MS/MS analysis; assay type: ADME, organism-based; details: in vivo
[40] = AUC (0 to infinity) in C3H/J mouse at 100 mg/kg, po by LC-MS/MS analysis; assay type: ADME, organism-based; design: time infinity, dose 100 mg/kg, route po; details: in vivo
Hepatitis B virus [41] = test: Antiviral activity against HBV infected in human HepG2 cells assessed as reduction in HBeAg secretion incubated for 5 days by counter screen assay; assay type: functional, organism-based; details: HepG2, 120 h
[42] = Tmax in C3H/J mouse at 20 mg/kg, po by LC-MS/MS analysis; assay type: ADME, organism-based; details: in vivo
Hepatitis B virus [43] = test: Antiviral activity against HBV infected HBVcircle mouse model assessed as reduction in HBsAg levels in mouse serum at 300 mg/kg, po bid treated for 3 weeks and measured up to 56 days; assay type: functional, organism-based
Hepatitis B virus [44] = test: Antiviral activity against HBV infected HBVcircle mouse model assessed as reduction in HBeAg levels in mouse serum at 300 mg/kg, po bid treated for 3 weeks and measured up to 56 days; assay type: functional, organism-based

O=C(O)[C@@H]1CCN(c2ccc3c(=O)c4cccc(Cl)c4oc3c2)C1
fCmin [1]: 20.7 nM
Papp [2]: 2.82 ×10⁻⁶ cm/s
Cmax [3]: 32200 ng/mL
fCmax [4]: 1151 nM
IC50 (Hepatitis B virus [5]): 580 nM
Cmax/dose [6]: 200 ng/mL
AUC(0-inf) [7]: 857 ng·h/mL
fCmax [8]: 3.452 µM
f(Cave) [9]: 178 nM
logD [10]: 1
half-life [11]: 3.46 h
Cmax/dose [12]: 322 ng/mL
Tmax [13]: 0.5 h
AUC/dose [14]: 1200 (ng·h/mL)/(mg/kg)
AUC(0-t) at 12 h [15]: 453000 ng·h/mL
half-life [16]: 1.82 h
Cmax [17]: 828 ng/mL
IC50 (Hepatitis B virus [18]): 1150 nM
fCmin [19]: 62.2 nM
AUC/dose [20]: 591 (ng·h/mL)/(mg/kg)
CLint scaled [21]: 51.9 mL/min/kg
Tmax [22]: 2.67 h
fCmax [23]: 1151 nM
Cmax [24]: 59900 ng/mL
half-life [25]: 3.45 h
f(Cave) [26]: 1053 nM
fCmin [27]: 0.23 nM
Cmax/dose [28]: 166 ng/mL
Activity [29]: Non-Toxic
AUC/dose [30]: 1510 (ng·h/mL)/(mg/kg)
Tmax [31]: 0.25 h
solubility [32]: > 452 µg/mL
Activity (Hepatitis B virus [33]): Active
AUC(0-inf) [34]: 11800 ng·h/mL
AUC/dose [35]: 1042 ng·h/mL
f(Cave) [36]: 351 nM
Cmax [37]: 8160 ng/mL
Activity (Hepatitis B virus [38]): Active
Cmax/dose [39]: 408 ng/mL
AUC(0-inf) [40]: 120000 ng·h/mL
IC50 (Hepatitis B virus [41]): > 50000 nM
Tmax [42]: 0.5 h
Activity (Hepatitis B virus [43]): Active
Activity (Hepatitis B virus [44]): Active
